Consider one molecule from article doi:10.1101/153262v1 (biorxiv, 2017).

For this experiment, the target named is T1, EiCsm6 (Enterococcus italicus, UniProt E6LHV2).
T1 sequence (E6LHV2 1-430): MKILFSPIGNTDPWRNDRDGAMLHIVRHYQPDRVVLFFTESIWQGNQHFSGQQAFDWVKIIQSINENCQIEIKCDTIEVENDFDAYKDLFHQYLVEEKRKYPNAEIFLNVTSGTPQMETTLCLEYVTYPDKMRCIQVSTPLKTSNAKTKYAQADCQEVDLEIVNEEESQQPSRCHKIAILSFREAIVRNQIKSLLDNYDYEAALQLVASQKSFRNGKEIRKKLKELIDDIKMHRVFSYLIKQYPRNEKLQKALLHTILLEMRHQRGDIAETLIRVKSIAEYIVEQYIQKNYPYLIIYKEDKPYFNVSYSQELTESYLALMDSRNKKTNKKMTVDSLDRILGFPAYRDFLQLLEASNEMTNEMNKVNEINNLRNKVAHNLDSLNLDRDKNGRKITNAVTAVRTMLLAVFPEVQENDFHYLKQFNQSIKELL
Description: fluorogenic RNase Alert cleavage, initial velocities, log. The class given is biochemical. As to conditions: activator; allosteric, CARF domain; 20 mM HEPES pH 7.5, 50 mM KCl.

Broadly, the EC50 is the concentration that produces a half-maximal response. A high value points to a need for much substance. With `Nc1ncnc2c1ncn2[C@@H]1O[C@H](CO)[C@@H](OP(=O)(O)OC[C@H]2O[C@@H](n3cnc4c(N)ncnc43)[C@H](O)[C@@H]2OP(=O)(O)OC[C@H]2O[C@@H](n3cnc4c(N)ncnc43)[C@H](O)[C@@H]2OP(=O)(O)OC[C@H]2O[C@@H](n3cnc4c(N)ncnc43)[C@H](O)[C@@H]2OP(=O)(O)OC[C@H]2O[C@@H](n3cnc4c(N)ncnc43)[C@H](O)[C@@H]2OP(=O)(O)OC[C@H]2O[C@@H](n3cnc4c(N)ncnc43)[C@@H]3OP(=O)(O)O[C@@H]32)[C@H]1O` [A6>P, 2',3'-cyclic phosphate-terminated hexaadenylate], the 50% effective concentration (EC50) is around 60 nM.
